Here are results for two compounds from article PMC9878307, “Derivatives of 2-aminobenzimidazole potentiate ASIC open state with slow kinetics of activation and desensitization” (Frontiers in Physiology, 2023).

Common to all, as to type: cell-based
Test [1] has as its target T1, ASIC2a (Rattus norvegicus, UniProt Q62962).
T1 construct: gene Asic2; rASIC2a homomer expressed in CHO cells
T1 sequence (Q62962 1-512): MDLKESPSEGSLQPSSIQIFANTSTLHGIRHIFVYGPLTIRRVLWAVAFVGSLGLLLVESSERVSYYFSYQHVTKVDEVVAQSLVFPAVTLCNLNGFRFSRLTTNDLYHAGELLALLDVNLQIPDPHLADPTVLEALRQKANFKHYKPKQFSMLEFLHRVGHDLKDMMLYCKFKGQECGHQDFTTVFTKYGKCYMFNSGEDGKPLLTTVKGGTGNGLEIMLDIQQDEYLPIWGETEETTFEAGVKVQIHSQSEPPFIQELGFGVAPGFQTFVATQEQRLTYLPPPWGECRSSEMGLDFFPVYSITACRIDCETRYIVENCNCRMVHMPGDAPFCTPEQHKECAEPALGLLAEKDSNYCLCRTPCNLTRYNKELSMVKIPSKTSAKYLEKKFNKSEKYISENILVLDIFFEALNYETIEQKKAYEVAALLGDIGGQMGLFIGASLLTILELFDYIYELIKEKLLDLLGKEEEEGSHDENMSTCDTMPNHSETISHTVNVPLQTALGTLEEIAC
The test is described as follows: whole-cell patch clamp, potentiation of acid-evoked peak current at pH […].

In test [2] the target is T2, ASIC1a (Rattus norvegicus, UniProt P55926).
T2 construct: gene Asic1; rASIC1a homomer expressed in CHO cells
T2 sequence (P55926 1-526): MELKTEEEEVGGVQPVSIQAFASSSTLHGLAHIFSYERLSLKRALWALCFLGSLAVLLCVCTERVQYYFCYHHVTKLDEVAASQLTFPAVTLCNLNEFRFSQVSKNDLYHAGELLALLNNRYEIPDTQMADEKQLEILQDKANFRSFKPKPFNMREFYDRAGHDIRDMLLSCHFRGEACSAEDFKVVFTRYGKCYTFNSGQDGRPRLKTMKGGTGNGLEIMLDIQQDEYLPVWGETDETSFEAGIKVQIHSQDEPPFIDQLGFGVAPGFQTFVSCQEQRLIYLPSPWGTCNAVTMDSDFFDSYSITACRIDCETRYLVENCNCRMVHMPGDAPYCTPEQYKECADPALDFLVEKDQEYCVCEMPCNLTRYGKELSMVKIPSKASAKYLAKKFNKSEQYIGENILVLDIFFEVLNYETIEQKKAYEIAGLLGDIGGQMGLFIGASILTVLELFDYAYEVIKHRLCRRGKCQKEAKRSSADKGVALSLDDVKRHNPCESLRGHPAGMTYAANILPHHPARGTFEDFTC
The test is described as follows: whole-cell patch clamp, slowed desensitization ([…] at […], […] at […]), amplitude unchanged.

For test [3], the target named is T1, ASIC2a. The test is described as follows: whole-cell patch clamp, […] inhibition of peak current at […], pH […]. To be noted: pH 5.
The target in test [4] is T3, ASIC3 (Rattus norvegicus, UniProt O35240).
T3 construct: rASIC3 expressed in CHO cells
T3 sequence (O35240 1-533): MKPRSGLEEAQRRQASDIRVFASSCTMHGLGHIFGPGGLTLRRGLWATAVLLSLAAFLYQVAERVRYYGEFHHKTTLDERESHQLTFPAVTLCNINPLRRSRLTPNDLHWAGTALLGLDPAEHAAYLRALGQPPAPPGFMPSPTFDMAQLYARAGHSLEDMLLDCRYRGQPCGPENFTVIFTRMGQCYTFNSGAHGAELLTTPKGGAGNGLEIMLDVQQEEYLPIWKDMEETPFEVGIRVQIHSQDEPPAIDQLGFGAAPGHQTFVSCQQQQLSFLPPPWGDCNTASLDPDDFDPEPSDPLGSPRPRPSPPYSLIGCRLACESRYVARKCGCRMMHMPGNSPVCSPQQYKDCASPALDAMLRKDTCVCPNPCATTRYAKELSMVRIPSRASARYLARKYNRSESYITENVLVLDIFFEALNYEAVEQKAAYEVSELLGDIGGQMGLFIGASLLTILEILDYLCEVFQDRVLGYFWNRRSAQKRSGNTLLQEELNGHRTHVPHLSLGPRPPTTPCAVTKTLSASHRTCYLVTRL
The test is described as follows: whole-cell patch clamp, […] inhibition of peak current at […].

`Nc1n(CC(=O)c2ccc(F)cc2)c2ccccc2[n+]1CCN1CCOCC1` [Ru-1355]: the EC50 in test [1] was 7.52 ± 0.33 µM. Moreover, the “fold slowing of desensitization” value in test [2] is given as 1.28 ± 0.15.
As to `N=C(N)c1ccc(/N=N/Nc2ccc(C(=N)N)cc2)cc1` [diminazene], the inhibition at 70 µM in test [3] was 75 ± 12%; in test [4], 74 ± 8%.
